The values below come from patent US7223791B2, “Function regulator for retinoid relative receptor” (Takeda Pharmaceutical Company Limited, priority 2001, dated 2007).

One series deals with T1, PPARγ-RXRα heterodimer (Homo sapiens, UniProt P19793+P37231).
T1 construct: 1.4 kb DNA fragment containing PPARγ gene was recovered from the gel; 1.4 kb DNA fragment containing RXRα gene was recovered from the gel; expressed in transfected cells
T1 sequence (P37231 1-477 isoform P37231-2): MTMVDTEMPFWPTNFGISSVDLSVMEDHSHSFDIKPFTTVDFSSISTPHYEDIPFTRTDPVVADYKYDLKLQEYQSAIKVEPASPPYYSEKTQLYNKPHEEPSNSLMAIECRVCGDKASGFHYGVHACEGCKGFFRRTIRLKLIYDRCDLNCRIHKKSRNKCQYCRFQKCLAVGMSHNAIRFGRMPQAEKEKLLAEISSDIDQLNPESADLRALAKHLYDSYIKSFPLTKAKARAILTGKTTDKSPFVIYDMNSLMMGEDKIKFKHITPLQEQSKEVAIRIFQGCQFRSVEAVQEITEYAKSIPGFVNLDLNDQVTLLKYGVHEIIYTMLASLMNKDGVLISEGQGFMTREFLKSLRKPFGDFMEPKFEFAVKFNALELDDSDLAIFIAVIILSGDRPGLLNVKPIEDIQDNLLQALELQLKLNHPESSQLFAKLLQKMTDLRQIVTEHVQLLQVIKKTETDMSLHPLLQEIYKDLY
T1 sequence (P19793 1-462): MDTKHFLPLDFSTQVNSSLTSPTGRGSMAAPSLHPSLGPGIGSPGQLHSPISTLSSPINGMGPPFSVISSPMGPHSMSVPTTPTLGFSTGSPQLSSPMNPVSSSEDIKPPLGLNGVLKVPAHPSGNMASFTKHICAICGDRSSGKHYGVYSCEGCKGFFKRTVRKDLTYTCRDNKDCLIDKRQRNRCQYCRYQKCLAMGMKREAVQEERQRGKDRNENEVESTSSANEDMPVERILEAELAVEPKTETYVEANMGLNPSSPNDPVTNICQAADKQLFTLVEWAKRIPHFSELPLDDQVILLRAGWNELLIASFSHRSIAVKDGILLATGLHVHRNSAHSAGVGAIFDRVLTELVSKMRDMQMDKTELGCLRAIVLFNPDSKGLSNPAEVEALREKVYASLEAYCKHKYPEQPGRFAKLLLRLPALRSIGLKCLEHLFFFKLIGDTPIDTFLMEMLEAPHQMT
Kind of series: PPARγ-RXRα heterodimer ligand activity (luciferase reporter, PPARγ:RXRα:4ERPP/CHO-K1 cells). Type of series: cell-based. As to conditions: 48 hrs, concentration for 50% of the maximum fold induction. The procedure: (PPARγ-RXRα Heterodimer Ligand Activity)
PPARγ: RXRα: 4ERPP/CHO-K1 cells obtained in the following Reference Example 5 were cultured in HAM F12 medium (manufactured by NISSUI SEIYAKU) containing 10% fetal bovine serum [manufactured by Life Technologies, Inc., USA], seeded in a 96-well white plate [manufactured by Corning Coster Corporation, USA] at the density of 2×10^4 cells/well and cultured in a CO2 gas incubator at 37° C. overnight.
After washing the 96-well white plate with PBS (Phosphate-buffered saline), 90 μl of HAM F12 medium containing 0.1% fatty acid-free bovine serum albumin (BSA) and 10 μl of test compound were added, and the cells were cultured in a CO2 gas incubator at 37° C. for 48 hrs. The medium was removed and 40 μl of PicaGene 7.5 (manufactured by Wako Pure Chemical Industries, Ltd.) was added. After stirring, the luciferase activity was determined using Lumistar [manufactured by BMG Labtechnologies GmbH, Germany].
The fold induction was calculated from the luciferase activity of each test compound when the luciferase activity of the test compound non-administration group is taken as 1. The values of the test compound concentration and the fold induction were analyzed using PRISM 2.01 (produced by GraphPad Software Inc. USA) to calculate the EC50 values, the concentration of a test compound for 50% of the maximum fold induction. The results are shown in [Table 2].
Introduction of Human PPARγ- and RXRα-Expression Plasmid and Reporter Plasmid into CHO-K1 Cell as Well as Establishment of Expressed Cell
A CHO-K1 cell cultured in a tissue culture flask (750 ml) [produced by Corning Costar Corporation, USA] containing HAM F12 medium (produced by NISSUI SEIYAKU) supplemented with 10% fetal bovine serum [produced by Life Technologies, Inc., USA] was scraped by treating with 0.5 g/L trypsin-0.2 g/L EDTA (ethylenediamine tetraacetate) [produced by Life Technologies, Inc., USA], and then the cell was washed with PBS (Phosphate-buffered saline)[produced by Life Technologies, Inc., USA], centrifuged (1000 rpm, 5 minutes) and suspended in PBS. Subsequently, DNA was introduced into the cell under the conditions shown below using GENE PULSER (produced by Bio-Rad Laboratories, USA).
Namely, to a cuvette having a 0.4 cm gap were added 8×10^6 cells and 10 μg of plasmid pVgRXR2-hPPARγ obtained in Reference Example 3 and 10 μg of reporter plasmid pGL3-4ERPP-TK neo obtained in Reference Example 4, which was subjected to electroporation at the voltage of 0.25 kV under the capacitance of 960 μF. Subsequently, the cell was transferred into a HAM F12 medium containing 10% fetal bovine serum and cultured for 24 hours, and then the cell was scraped again and centrifuged, and then suspended in HAM F12 medium containing 10% fetal bovine serum supplemented with 500 μg/ml of Geneticin [produced by Life Technologies, Inc., USA] and 250 μg/ml of Zeocin (produced by Invitrogen, USA). The obtained suspension was diluted to the density of 10^4 cells/ml and inoculated in a 96-well plate [produced by Corning Costar Corporation, USA], which was cultured in a CO2 gas incubator at 37° C., whereby obtaining a Geneticin- and Zeocin-resistant transformant.
Subsequently, after the transformant cell line thus obtained was cultured in a 24-well plate [produced by Corning Costar Corporation, USA], a cell line in which the luciferase was expressed and induced, i.e., PPARγ: RXRα: 4ERPP/CHO-K1 cell was selected by the addition of 10 μM pioglitazone hydrochloride.

The subject of another series is KKA^y mice. Kind of series: Glucose-lowering and lipid-lowering (triglyceride-lowering) actions in mice. Type of series: in vivo. As to conditions: test compound 0.01% in powdery diet for four days, non-administration group taken as 100%; for glucose-lowering action (%): reduction percent of blood glucose level; for lipid-lowering action (%): reduction percent of blood triglyceride level. From the text:
Glucose-Lowering and Lipid-Lowering (Triglyceride-Lowering) Actions in Mice
Test compounds were mixed in a powdery diet (CE-2, Japan Clea) at the proportion of 0.01%, and freely given to KKA^y mice (9 to 12 weeks old, 5 mice per group), a model of obesity-non-insulin dependent diabetes mellitus (type 2 diabetes mellitus), for four days. During this period, water was given freely. Blood was sampled from orbital venous plexus, and glucose and triglyceride levels in plasma separated from the blood were determined enzymatically using L type Wako Glu2 (Wako Pure Chemical Industries, Ltd.) or L type Wako TG-H (Wako Pure Chemical Industries, Ltd.), respectively. The results are given in [Table 1].
In the Table, “glucose-lowering action (%)” represents a reduction percent (%) of the blood glucose level in a test compound administration group when the blood glucose level in a test compound non-administration group is taken as 100%. In addition, “lipid-lowering action (%)” represents a reduction percent (%) of the blood triglyceride level in the test compound administration group when the blood triglyceride level in the test compound non-administration group is taken as 100%.

Where only a bound is given, the exact number is not on record here.

Consider `O=C(O)c1cccc(-c2cc(-c3ccc(C(F)(F)F)cc3)no2)c1` [Example 33, 3-[3-(4-trifluoromethylphenyl)-5-isoxazolyl]benzoic acid], for which the melting point (commonly the temperature, or range, at which the solid turns liquid) was in the range of 272 to 273 °C. The EC50 (in general, the concentration at which the effect is half-maximal) at PPARγ-RXRα heterodimer amounted to 2.7 nM.
For `O=C(O)c1ccc(-c2cc(-c3ccccc3)on2)cc1` [Example 28, 4-(5-phenyl-3-isoxazolyl)benzoic acid] the same measures were 297 to 298 °C and 2.3 nM.
Consider `O=C(O)c1cccc(-c2cc(-c3ccc(Cl)cc3)on2)c1` [Example 29, 3-[5-(4-chlorophenyl)-3-isoxazolyl]benzoic acid], for which the melting point was in the range of 298 to 299 °C. A half-maximal effect at PPARγ-RXRα heterodimer (EC50) was put at 0.59 nM.
On to `O=C(O)c1ccc(-c2noc(-c3ccc(C(F)(F)F)cc3)n2)cc1` [Example 44, 4-[5-(4-trifluoromethylphenyl)-1,2,4-oxadiazol-3-yl]benzoic acid], for which the melting point is 286 to 287 °C. This compound registered an EC50 at PPARγ-RXRα heterodimer of 68 nM.
Consider `O=C(O)c1ccc(-c2cc(-c3ccc(Cl)cc3)on2)cc1` [Example 30, 4-[5-(4-chlorophenyl)-3-isoxazolyl]benzoic acid], for which the melting point is above 300 °C. At PPARγ-RXRα heterodimer, this compound gave a concentration for a half-maximal effect (EC50) of 6 nM.
Taken in the same sequence, the figures for `O=C(O)c1cccc(-c2cc(-c3ccccc3)on2)c1` [Example 27, 3-(5-phenyl-3-isoxazolyl)benzoic acid] were 250 to 251 °C and 2.1 nM.
Take `O=C(O)c1ccc(-c2ccc(-c3ccc(Cl)cc3)s2)cc1` [Example 15, 4-[5-(4-chlorophenyl)-2-thienyl]benzoic acid]: the melting point is 285 to 286 °C. In the series with KKA^y mice, the “glucose-lowering action (%)” value came to 30% and the “lipid-lowering action (%)” value came out at 54%. The concentration for a half-maximal effect (EC50) at PPARγ-RXRα heterodimer is 22 nM.
The compound `COC(=O)c1ccc(-c2nnc(-c3ccc(C(F)(F)F)cc3)s2)cc1` [Example 58, methyl 4-[5-(4-trifluoromethylphenyl)-1,3,4-thiadiazol-2-yl]benzoate] gave a melting point of 218 to 219 °C. In the series with KKA^y mice, the “glucose-lowering action (%)” value was 37% and the “lipid-lowering action (%)” value amounted to 48%.
The compound `Cn1c(-c2ccc(C(=O)O)cc2)ccc1-c1ccc(C(F)(F)F)cc1` [Example 7, 4-[1-methyl-5-(4-trifluoromethylphenyl)-2-pyrrolyl]benzoic acid] came in with a melting point of 260 to 261 °C. The compound also came in with an EC50 on PPARγ-RXRα heterodimer of 7.6 nM.
For the compound `O=C(O)c1ccc(-c2ccc(-c3ccc(C(F)(F)F)cc3)o2)cc1` [Example 10, 4-[5-(4-trifluoromethylphenyl)-2-furyl]benzoic acid], the melting point is 270 to 271 °C. In the series on KKA^y mice, the “glucose-lowering action (%)” value amounted to 37% and the “lipid-lowering action (%)” value is 62%. This compound also showed an EC50 on PPARγ-RXRα heterodimer of 3.8 nM.
`O=C(O)c1cccc(-c2cc(-c3ccc(C(F)(F)F)cc3)on2)c1` [Example 34, 3-[5-(4-trifluoromethylphenyl)-3-isoxazolyl]benzoic acid] returned a melting point of 276 to 277 °C. Besides, the EC50 on PPARγ-RXRα heterodimer turned out to be 1.2 nM.
With `O=C(O)c1ccc(-c2cc(-c3ccc(C(F)(F)F)cc3)on2)cc1` [Example 35, 4-[5-(4-trifluoromethylphenyl)-3-isoxazolyl]benzoic acid], the melting point is above 300 °C. At PPARγ-RXRα heterodimer, this compound returned a concentration giving a half-maximal response (EC50) of 3.8 nM.
Taken in the same sequence, the figures for `O=C(O)c1ccc(-c2ccc(-c3ccc(C(F)(F)F)cc3)s2)cc1` [Example 16, 4-[5-(4-trifluoromethylphenyl)-2-thienyl]benzoic acid] were 284 to 285 °C and 23 nM.
In turn, `CCOC(=O)c1ccc(-c2ccc(-c3ccc(C(F)(F)F)cc3)o2)cc1` [Example 6, ethyl 4-[5-(4-triflubromethylphenyl)-2-furyl]benzoate] displayed a concentration for a half-maximal effect (EC50) at PPARγ-RXRα heterodimer of 3.6 nM.
Turning to `O=C(O)c1cccc(-c2ccc(-c3ccc(C(F)(F)F)cc3)o2)c1` [Example 9, 3-[5-(4-trifluoromethylphenyl)-2-furyl]benzoic acid], the melting point fell in the range of 271 to 272 °C. The compound further returned an EC50 on PPARγ-RXRα heterodimer of 54 nM.
